biological target: T1, human CXCR6 (Homo sapiens, UniProt O00574); assay: Radioligand Binding Assay (125I-CXCL16 displacement); conditions: L1.2 cells stably transfected with human CXCR6 cDNA, 0.1 nM 125I-CXCL16, 4° C., three-hour incubation; read-out: Potency (IC50)
T1 construct: expressed in transfected cells
Protocol: L1.2 cells stably transfected with human CXCR6 cDNA ([…]) were incubated at 4° C. in HBSS containing 0.1 % BSA and 0.1 nM of ^125I-CXCL16 plus various concentrations of Compound. Following a three-hour incubation period, cells were aspirated onto polyethyleneimine-treated GF/B glass fiber filters (PerkinElmer, Waltham, MA) with a cell harvester (Tomtec, Hamden, CT) and washed twice with washing buffer (25 mM Hepes, 500 mM NaCl, 1 mM CaCI2, 5 mM MgCI2, pH 7.1). Fifty µl of MicroScint-20 (PerkinElmer, Waltham, MA) was added to each well of the filters, and radioactive emissions (cpm) were measured on a Packard TopCount Scintillation counter (PerkinElmer, Waltham, MA). IC50 values were calculated with GraphPad Prism using 3 parameter nonlinear regression. […]

T1 sequence (O00574 whole entry): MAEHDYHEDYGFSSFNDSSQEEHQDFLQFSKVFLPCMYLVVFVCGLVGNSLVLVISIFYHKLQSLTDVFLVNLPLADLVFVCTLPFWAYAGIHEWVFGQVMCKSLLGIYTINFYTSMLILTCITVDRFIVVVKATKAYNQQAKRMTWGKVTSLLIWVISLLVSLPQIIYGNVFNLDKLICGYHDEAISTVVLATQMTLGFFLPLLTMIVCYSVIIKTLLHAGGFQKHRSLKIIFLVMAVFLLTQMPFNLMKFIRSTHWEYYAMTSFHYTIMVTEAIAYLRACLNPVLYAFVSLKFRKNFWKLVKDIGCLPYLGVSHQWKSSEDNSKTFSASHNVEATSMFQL

Row | Compound | IC50
1 | CCOc1cc(NC(=O)C2(COC)CC2)ccc1S(=O)(=O)Nc1cccc(OC(F)(F)F)c1 [Example 1.302] | 750 to 2000 nM
2 | CCOc1cc(NC(=O)C(C(=O)O)C2CCOCC2)ccc1S(=O)(=O)Nc1cccc(OC(F)(F)F)c1 (stereo not shown) [Example 1.377] | ≤ 200 nM
3 | C=Cc1cc(NS(=O)(=O)c2ccc(NC(=O)[C@@H](CO)c3ccccc3)cc2OCC)ccc1C [Example 1.372] | ≤ 200 nM
4 | CCOc1cc(NC(=O)C(C(=O)O)C(C)C)ccc1S(=O)(=O)Nc1cccc(OC(F)(F)F)c1 (stereo not shown) [Example 1.217] | ≤ 200 nM
5 | CCOc1cc(NC(=O)[C@H]2CC=CC[C@H]2O)ccc1S(=O)(=O)Nc1cccc(OC(F)(F)F)c1 [Example 1.173] | 200 to 750 nM
6 | CCOc1cc(NC(=O)[C@H]2CCOC[C@@H]2COC)ccc1S(=O)(=O)Nc1cccc(OC(F)(F)F)c1 (racemic) [Example 1.237] | 200 to 750 nM
7 | CCOc1cc(NC(=O)[C@@H](O)C(C)C)ccc1S(=O)(=O)Nc1ccc(Cl)c(OC)c1 [Example 1.154] | 200 to 750 nM
8 | Cc1cc(NC(=O)c2cccnc2)ccc1S(=O)(=O)Nc1cccc(C(F)(F)F)c1 [Example 1.330] | 200 to 750 nM
9 | CCOc1cc(NC(=O)C(O)[C@@H](C)CC)ccc1S(=O)(=O)Nc1cccc(C(F)(F)F)c1 (stereo partly shown) [Example 1.390] | ≤ 200 nM
10 | CCOc1cc(NC(=O)[C@@H](CO)C(C)C)ccc1S(=O)(=O)Nc1ccc(C)c(Cl)c1 [Example 1.142] | ≤ 200 nM
11 | Cc1cc(NC(=O)c2ccnnc2)ccc1S(=O)(=O)Nc1cccc(C(F)(F)F)c1 [Example 1.093] | 750 to 2000 nM
12 | CCOc1cc(NC(=O)C(CNC(C)=O)c2ccccc2)ccc1S(=O)(=O)Nc1cccc(OC(F)(F)F)c1 (stereo not shown) [Example 1.386] | ≤ 200 nM
13 | COc1cc(NC(=O)c2ccnn2C)ccc1S(=O)(=O)Nc1cccc(Cl)c1 [Example 1.202] | 2000 to 20000 nM
14 | COc1cc(NC(=O)[C@@H]2CCC[C@@H]2N)ccc1S(=O)(=O)Nc1cccc(C(F)(F)F)c1 [Example 1.347] | 2000 to 20000 nM
15 | CCOc1cc(NC(=O)[C@@H](CO)C(C)C)ccc1S(=O)(=O)Nc1cccc(C2CC2)c1 [Example 1.082] | ≤ 200 nM
16 | Cc1cc(NC(=O)c2cccnc2C)ccc1S(=O)(=O)Nc1cccc(C(F)(F)F)c1 [Example 1.306] | 750 to 2000 nM
17 | COc1cc(NC(=O)C2=CCCCC2)ccc1S(=O)(=O)Nc1cccc(OC(F)(F)F)c1 [Example 1.090] | 750 to 2000 nM
18 | COc1cc(NC(=O)C2CCOCC2)ccc1S(=O)(=O)Nc1cccc(C(F)(F)F)c1 [Example 1.304] | 750 to 2000 nM
19 | Cc1cc(NC(=O)c2ccn(C)c(=O)c2)ccc1S(=O)(=O)Nc1cccc(OC(F)(F)F)c1 [Example 1.100] | 200 to 750 nM
20 | COc1cc(NC(=O)[C@H]2CC[C@H](OC)CC2)ccc1S(=O)(=O)Nc1cccc(C(F)(F)F)c1 [Example 1.051] | 2000 to 20000 nM
21 | COc1cc(NC(=O)c2ccnn2C)ccc1S(=O)(=O)Nc1ccc(F)c(C(F)(F)F)c1 [Example 1.248] | 750 to 2000 nM

Row | Compound | IC50
22 | CCOc1cc(NC(=O)[C@H]2CC=CC[C@@H]2C(=O)O)ccc1S(=O)(=O)Nc1ccc(C)c(OC(F)(F)F)c1 (racemic) [Example 1.167] | 2000 to 20000 nM
23 | Cc1cc(NC(=O)c2cnco2)ccc1S(=O)(=O)Nc1cccc(C(F)(F)F)c1 [Example 1.252] | 750 to 2000 nM
24 | CCOc1cc(NC(=O)C(CC2CC2)C(=O)O)ccc1S(=O)(=O)Nc1cccc(OC(F)(F)F)c1 (stereo not shown) [Example 1.013] | ≤ 200 nM
25 | CCOc1cc(NC(=O)[C@@H](O)c2ccccc2)ccc1S(=O)(=O)Nc1ccc(Cl)c(OC(F)(F)F)c1 [Example 1.262] | ≤ 200 nM
26 | CCOc1cc(NC(=O)[C@@H](NC(C)=O)C(C)C)ccc1S(=O)(=O)Nc1ccc(C)c(OC(F)(F)F)c1 [Example 1.275] | ≤ 200 nM
27 | CCOc1cc(NC(=O)[C@@H](CO)c2ccccc2)ccc1S(=O)(=O)Nc1ccc2c(c1)OC(F)(F)O2 [Example 1.121] | 2000 to 20000 nM
28 | CCOc1cc(NC(=O)c2ccnn2C)ccc1S(=O)(=O)Nc1cccc(C(F)(F)F)c1 [Example 1.068] | ≤ 200 nM
29 | COc1cc(NC(=O)C(CO)c2ccccc2)ccc1S(=O)(=O)Nc1cccc(C(F)(F)F)c1 (stereo not shown) [Example 1.206] | 200 to 750 nM
30 | Cc1cc(NC(=O)c2ccnn2C)ccc1S(=O)(=O)Nc1cccc(C(F)(F)F)c1 [Example 1.036] | ≤ 200 nM
31 | CCOc1cc(NC(=O)C(C(=O)NCCO)C2CCCC2)ccc1S(=O)(=O)Nc1cccc(OC(F)(F)F)c1 (stereo not shown) [Example 1.339] | ≤ 200 nM
32 | CCOc1cc(NC(=O)c2cccnc2)ccc1S(=O)(=O)Nc1cccc(OC(F)(F)F)c1 [Example 1.403] | ≤ 200 nM
33 | CCOc1cc(NC(=O)[C@H]2CCOC[C@@H]2CC)ccc1S(=O)(=O)Nc1cccc(OC(F)(F)F)c1 (racemic) [Example 1.065] | ≤ 200 nM
34 | CCOc1cc(NC(=O)[C@@H](NC=O)C(C)CC)ccc1S(=O)(=O)Nc1cccc(OC(F)(F)F)c1 (stereo partly shown) [Example 1.108] | ≤ 200 nM
35 | COc1cc(NC(=O)c2ccnn2C)ccc1S(=O)(=O)Nc1ccc(OC(F)(F)F)c(C)c1 [Example 1.125] | 750 to 2000 nM
36 | CCOc1cc(NC(=O)[C@@H](CO)c2ccccc2)ccc1S(=O)(=O)Nc1cccc(Cl)c1C(F)(F)F [Example 1.350] | 2000 to 20000 nM
37 | CCOc1cc(NC(=O)C(C(N)=O)C2CCCC2)ccc1S(=O)(=O)Nc1cccc(OC(F)(F)F)c1 (stereo not shown) [Example 1.245] | ≤ 200 nM
38 | CCOc1cc(NC(=O)[C@@H](O)C(C)C)ccc1S(=O)(=O)Nc1ccc(C)c(OC(F)(F)F)c1 [Example 1.205] | ≤ 200 nM
39 | CCOc1cc(NC(=O)[C@@H](N)c2ccccc2)ccc1S(=O)(=O)Nc1ccc(Cl)c(OC(F)(F)F)c1 [Example 1.234] | ≤ 200 nM
40 | CCOc1cc(NC(=O)[C@@H](NS(C)(=O)=O)C(C)C)ccc1S(=O)(=O)Nc1cccc(OC(F)(F)F)c1 [Example 1.324] | ≤ 200 nM
41 | CCOc1cc(NC(=O)[C@H]2CC[C@H](OC)CC2)ccc1S(=O)(=O)Nc1cccc(OC(F)(F)F)c1 [Example 1.028] | 750 to 2000 nM
42 | COc1cc(NC(=O)c2ccnn2C)ccc1S(=O)(=O)Nc1ccccc1OC(F)(F)F [Example 1.016] | 2000 to 20000 nM

Further lines, results first:

Row | IC50 | Compound
43 | 200 to 750 nM | CCOc1cc(NC(=O)[C@@H](CO)c2ccccc2)ccc1S(=O)(=O)Nc1ccc(OC)c(C(F)(F)F)c1 [Example 1.546]
44 | 200 to 750 nM | CCOc1cc(NC(=O)[C@@H]2CCCCC[C@H]2O)ccc1S(=O)(=O)Nc1cccc(OC(F)(F)F)c1 [Example 1.562]
45 | ≤ 200 nM | CCOc1cc(NC(=O)C(C(=O)O)C2CCCC2)ccc1S(=O)(=O)Nc1cccc(OC(F)(F)F)c1 (stereo not shown) [Example 1.479]
46 | ≤ 200 nM | CCOc1cc(NC(=O)C2CC3C=CC2O3)ccc1S(=O)(=O)Nc1cccc(OC(F)(F)F)c1 (stereo not shown) [Example 1.508]
47 | 750 to 2000 nM | COc1cc(NC(=O)c2cc(C(F)(F)F)nn2C)ccc1S(=O)(=O)Nc1cccc(C(F)(F)F)c1 [Example 1.430]
48 | 200 to 750 nM | Cc1cc(NC(=O)c2ccncc2)ccc1S(=O)(=O)Nc1cccc(C(F)(F)F)c1 [Example 1.524]
49 | 2000 to 20000 nM | CCOc1cc(NC(=O)C2CCCN(C(C)=O)C2)ccc1S(=O)(=O)Nc1cccc(OC(F)(F)F)c1 (stereo not shown) [Example 1.465]
50 | ≤ 200 nM | CCOc1cc(NC(=O)C(CO)C2CCCC2)ccc1S(=O)(=O)Nc1cccc(OC(F)(F)F)c1 (stereo not shown) [Example 1.455]
51 | 2000 to 20000 nM | CCOc1cc(NC(=O)C2CCNCC2)ccc1S(=O)(=O)Nc1cccc(OC(F)(F)F)c1 [Example 1.427]
52 | 2000 to 20000 nM | Cc1cc(NC(=O)C(C)(C)C)ccc1S(=O)(=O)Nc1cccc(C(F)(F)F)c1 [Example 1.434]
53 | 2000 to 20000 nM | COc1cc(NC(=O)C2NC3CCC2C3)ccc1S(=O)(=O)Nc1cccc(C(F)(F)F)c1 (stereo not shown) [Example 1.472]
54 | 2000 to 20000 nM | CCOc1cc(NC(=O)C2CCNC(=O)C2)ccc1S(=O)(=O)Nc1cccc(OC(F)(F)F)c1 (stereo not shown) [Example 1.475]
55 | 2000 to 20000 nM | COc1cc(NC(=O)CC2CCOCC2)ccc1S(=O)(=O)Nc1cccc(C(F)(F)F)c1 [Example 1.574]
56 | 2000 to 20000 nM | CCOc1cc(NC(=O)C2CCCN(C(=O)OC(C)(C)C)C2)ccc1S(=O)(=O)Nc1cccc(OC(F)(F)F)c1 (stereo not shown) [Example 1.458]
57 | 2000 to 20000 nM | CC(=O)Nc1cc(C)c(S(=O)(=O)Nc2cccc(C(F)(F)F)c2)c(C)c1 [Example 1.490]
58 | ≤ 200 nM | CCOc1cc(NC(=O)[C@@H](O)C(C)C)ccc1S(=O)(=O)Nc1ccc(C2CC2)c(OC(F)(F)F)c1 [Example 1.521]
59 | ≤ 200 nM | CCOc1cc(NC(=O)[C@@H](NC(C)=O)C(C)C)ccc1S(=O)(=O)Nc1ccc(Cl)c(OC(F)(F)F)c1 [Example 1.576]
60 | 2000 to 20000 nM | COCC1(C(=O)Nc2ccc(S(=O)(=O)Nc3cccc(C(F)(F)F)c3)c(C)c2)CC1 [Example 1.424]
61 | 200 to 750 nM | CC(C)c1cc(NC(=O)c2ccnn2C)ccc1S(=O)(=O)Nc1cccc(OC(F)(F)F)c1 [Example 1.456]
62 | ≤ 200 nM | CCOc1cc(NC(=O)c2ccc(OC)nc2)ccc1S(=O)(=O)Nc1cccc(OC(F)(F)F)c1 [Example 1.413]
63 | ≤ 200 nM | CCOc1cc(NC(=O)C(CC)CO)ccc1S(=O)(=O)Nc1cccc(OC(F)(F)F)c1 (stereo not shown) [Example 1.418]
64 | ≤ 200 nM | CCOc1cc(NC(=O)C(c2ccccc2)C(C)O)ccc1S(=O)(=O)Nc1cccc(OC(F)(F)F)c1 (stereo not shown) [Example 1.446]
65 | ≤ 200 nM | CCOc1cc(NC(=O)C(CC(C)C)C(=O)O)ccc1S(=O)(=O)Nc1cccc(OC(F)(F)F)c1 (stereo not shown) [Example 1.421]
66 | ≤ 200 nM | CCCOc1cc(NC(=O)[C@@H](CO)C(C)C)ccc1S(=O)(=O)Nc1cccc(OC(F)(F)F)c1 [Example 1.551]
67 | ≤ 200 nM | COc1cc(NC(=O)[C@@H](O)C(C)C)ccc1S(=O)(=O)Nc1ccc(C)c(OC(F)(F)F)c1 [Example 1.557]

— patent US20230339851A1, “CXCR6 SULFONAMIDE COMPOUNDS” (CHEMOCENTRYX, INC., priority 2022, published 2023)
